The text below walks through data of PubChem BioAssay (NCI).

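Test compounds were applied to cells in 96-well plates for 48 hours at 5 doses. GI50 marks 50% less growth. At the TGI there is no net growth.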

Common to all, as to assay: NCI-60 cell line screen, 48 h
Experiment [1] relates to HOP-92 NSCLC.
Experiment [2] concerns SNB-75 CNS.
The subject of experiment [3] is BT-549 breast.
Experiment [4] relates to SK-MEL-2 melanoma.
Experiment [5] has as its system COLO 205 colon.
Experiment [6] has as its system SNB-19 CNS.
Experiment [7] has as its system TK-10 renal.
The test system of experiment [8] is HCT-116 colon.
Experiment [9] deals with HCT-15 colon.
For experiment [10], the system named is UACC-257 melanoma.

Regarding `Cc1ccc(-c2nc3nc(-c4ccc(F)cc4)nc(N4CCCNCC4)c3o2)cc1`, the GI50 was 1.32 µM in [1]; 1.06 µM in experiment [2]; 1.66 µM in [3]; 1.73 µM in experiment [4]; 2.03 µM in experiment [5]; 1.7 µM in experiment [6]. The GI50 in experiment [7] is 1.66 µM; in [8], 0.457 µM; in experiment [9], 1.06 µM; in [10], 1.89 µM. The TGI in experiment [1] is 2.88 µM; in experiment [2], 2.24 µM; in experiment [3], 3.37 µM; in experiment [4], 3.35 µM; in [5], 4.07 µM; in experiment [6], 3.22 µM. In addition, the TGI in [7] was found to be 3.09 µM; in experiment [8], 1.73 µM; in experiment [9] it was 2.42 µM; in [10], 3.65 µM.

Regarding `Cc1ccc(NC(=O)c2cc(S(=O)(=O)N3C(=O)NC(=O)NS3(=O)=O)c(S)cc2Cl)cc1`, the GI50 in experiment [1] is 15.6 µM; in experiment [2] it was 91.6 µM; in experiment [3], 24.2 µM; in experiment [4] it was 28.3 µM; in [5], 39.8 µM; in experiment [6], 69.5 µM. Moreover, the GI50 in experiment [7] was 27.8 µM; in experiment [8], 30.3 µM; in [9], 33.2 µM; in [10] it was 17.2 µM. The TGI was 54.7 µM in experiment [1]; above 100 µM in experiment [2]; 63.9 µM in experiment [3]; 85.3 µM in experiment [4]; above 100 µM in experiment [5]; above 100 µM in [6]. The TGI in experiment [7] is 71.3 µM; in experiment [8], above 100 µM; in experiment [9], above 100 µM; in experiment [10] it was 46.8 µM.

With `CC(C)CCC1(CCN)C(=O)NC(=O)NC1=O`, the TGI in experiment [1], in experiment [2], in experiment [3], in experiment [4], in experiment [5] and in [6] was above 100 µM each time. Also, the TGI in experiment [7], in experiment [8], in experiment [9] and in experiment [10] was above 100 µM throughout.

Regarding `CN1/C(=C\C=C\C2=[N+](C)c3ccccc3C2(C)C)C(C)(C)c2ccccc21`, the GI50 in experiment [1] was 0.128 µM; in experiment [2], 0.271 µM; in experiment [3] it was 0.0903 µM; in [4], 0.212 µM; in experiment [5], 0.0457 µM; in experiment [6] it was 0.067 µM. In addition, the GI50 in [7] is 0.56 µM; in experiment [8], 0.0303 µM; in [9], 0.387 µM; in experiment [10] it was 0.0386 µM. Moreover, the TGI in experiment [1] came to 0.58 µM; in experiment [2], 1.88 µM; in experiment [3], 1.64 µM; in experiment [4], 1.14 µM; in experiment [5] it was 0.257 µM; in experiment [6], 12 µM. In addition, the TGI in [7] was determined as 14.8 µM; in [8] it was 1.11 µM; in experiment [9], 7.85 µM; in experiment [10], 0.452 µM.

With `Cn1cc(C2=C(c3cn(C4CCN(Cc5ccccn5)CC4)c4ccccc34)C(=O)NC2=O)c2ccccc21`, the GI50 in experiment [1] was 83.2 µM; in experiment [2], 0.358 µM; in [3], 7.56 µM; in experiment [4], 3.08 µM; in experiment [5] it was 3.08 µM; in [6], above 70.2 µM. Also, the GI50 in experiment [7] is above 41.5 µM; in experiment [8], 3.03 µM; in experiment [9], 3.44 µM; in experiment [10], 4.73 µM. Further, the TGI in [1] is above 100 µM; in experiment [2], 9.74 µM; in experiment [3] it was above 100 µM; in [4], 47.5 µM; in [5] it was above 100 µM; in experiment [6] it was above 100 µM. Besides, the TGI in experiment [7], in experiment [8], in [9] and in experiment [10] was above 100 µM throughout.

As for `N#CNC(N)=Nc1ccc(Cl)cc1`, the TGI in experiment [1], in [2], in experiment [3], in experiment [4], in [5] and in [6] was above 100 µM throughout. Also, the TGI in experiment [7], in [8], in experiment [9] and in [10] was above 100 µM in each case.

`CCOC(=O)/C(C#N)=C\C=C(/Cl)c1ccc(Cl)cc1`: the GI50 in experiment [1] is 17.5 µM; in experiment [2], 20.5 µM; in experiment [3], 25.8 µM; in [4], 27.7 µM; in experiment [5], 19.1 µM; in experiment [6], 19.1 µM. For the same compound, the GI50 in experiment [7] was 16.2 µM; in experiment [8], 11.2 µM; in experiment [9] it was 15.1 µM; in [10] it was 17.6 µM. Besides, the TGI was 47.2 µM in experiment [1]; 39.9 µM in experiment [2]; 68 µM in [3]; above 91.6 µM in [4]; above 48 µM in [5]; 46.4 µM in experiment [6]. Also, the TGI in [7] came to 35.2 µM; in experiment [8], 24.3 µM; in experiment [9], 33.6 µM; in [10], 32.6 µM.

As to `O=C1OCC2=C1C(c1ccccc1)c1cc3c(cc1N2CCO)OCO3` (stereo not given), the GI50 in experiment [1] is 13.9 µM; in experiment [2] it was 2.06 µM; in [3] it was 4.93 µM; in experiment [4], 2.72 µM; in experiment [5] it was 2.71 µM; in experiment [6], 15.6 µM. Besides, the GI50 in experiment [7] is 32.7 µM; in experiment [8], 1.79 µM; in experiment [9], 2.96 µM; in experiment [10], above 50 µM. The TGI in experiment [1] was above 50 µM; in [2], above 50 µM; in [3], above 50 µM; in experiment [4], above 50 µM; in [5] it was 17.1 µM; in experiment [6] it was above 50 µM. Further, the TGI in experiment [7], in [8], in experiment [9] and in [10] was above 50 µM throughout.
